US6693126B2, “Dihydroxyphenyl derivatives for hepatoprotection and treatment of liver diseases” (Choongwae Pharm. Co., Ltd., priority 2000, dated 2004)

Experiments:
[1] = test system: Liver Injuries caused by Carbon Tetrachloride in Mice; experiment: Inhibitory effect against liver injuries caused by carbon tetrachloride in mice; assay type: in vivo, mice (ICR, male); settings: CCl4 i.p., serum 24 h
Description: The carbon tetrachloride model(see, Philippe letteron et al., Biochemical Pharmacology, 39, 12, 2027-2034, 1990; Tips, 10, 1989; Kyoichi Kagawa et al., Japan J. Pharmacol., 42, 19-26, 1986; K. T. Liu and P. Lesca, Chem. Biol. Interactions, 41, 39-47, 1982; Richard O. et al., J. Biological Chemistry, 236, 2, 1961) is used most generally. This model has been established based on the internal phenomena that carbon tetrachloride is converted by cytochrome P-450 to a toxic free radical trichloromethyl(CCl3.), this radical is strongly bound to a thiol group of membrane protein on microsome of liver to form a lipid radical, which is then converted to a peroxy radical in the presence of oxygen to facilitate the peroxidation reaction of membrane lipid. That is, carbon tetrachloride suppresses protein biosynthesis in the liver, induces the increase of ALT and AST values in blood, and further causes histologically the centrilobular necrosis of the liver.
(§1) The degree of liver damage in the experimental animals was determined by measuring ALT and AST values in blood(see, Biol. Pharm. Bull., 20, 4, 381-385, 1997; Toxicology and Applied Pharmacology, 95, 1-11, 1988), and the hepatoprotective activity was calculated based on the following formula(see, Planta Medica, 55, 127-132, 1989). At this time, the hepatoprotective activity can also be calculated based on the same formula by replacing ALT value with AST value. [formula]
The hepatoprotective effect of the compound of the present invention was identified according to a known procedure(see, Philippe letteron et al., Biochemical Pharmacology, 39, 12, 2027-2034, 1990), and the protocol may be described in brief as follows.
Rats(SD, male, 180˜200 g) and mice(ICR, male, 27-35 g) used in the test were allowed in a condition of temperature 22±1° C. and relative humidity 60±5%. Feed and water were provided with no restriction while light and darkness were changed at an interval of 12 hours.
[…] […] Each group included 8 test animals, and the test compound was orally administered once per animal. After 30 minutes(rat) or 1 hour(mouse) from the administration of the test compound, 10% carbon tetrachloride in corn oil solution was intraperitoneally injected in doses of 2 ml/kg in rats and 0.15 ml/kg in mice. As the control compounds, silymarin and DDB were selected.
(§2) The test animals were provided with no feed and sufficient water for 24 hours from the administration of carbon tetrachloride. […] This blood was centrifuged to obtain sera. ALT and AST values in the sera were measured using blood chemistry analyzer(Vitalab, Selectra II, Merck). The statistical significance for the test result of each group was examined based on Student's t-test, and the result was recognized as having a statistical significance when its P value is less than 5%.

[2] = test system: Liver Injuries caused by Thioacetamide in Mice; experiment: Inhibitory effect against liver injuries caused by thioacetamide in mice; assay type: in vivo, Mice (ICR, male); settings: thioacetamide i.p., serum 24 h
Description: The hepatoprotective effect of the compound of formula (1) was also identified by thioacetamide model(see, Masuda Yasusuke and Nakayama Nobue, Biochemical Pharmacology, 31, 17, 2713-2725, 1982; Liu Jie et al., Acta Pharmacologica Sinica, 16, 2, 97-102, 1995; Story D. L. et al., J. Tox. Environ. Health, 11, 483-501, 1983; Gomez-Lechon M. J. et al., Xenobiotica, 18, 6, 725-735, 1988) which is frequently used as an experimental model for liver injuries. This model has been established based on the phenomena that thioacetamide activated by P-450 S-oxidation inordinately increases the influx of calcium ion(Ca^++) into the liver cells, which in turn activates calcium ion-dependent phospholipase, protease and endonuclease, changes the cell frame through the calcium ion, exhausts ATP, and consequently destroys the liver cells. Thioacetamide also damages ureogenesis pathway in liver, and the metabolite of thioacetamide inhibits the transfer of RNA and makes the liver cell membranes unstable. A series of these activities results in the destruction of the liver cells, which in turn causes the increase of ALT and AST values in blood and also causes histologically the centrilobular necrosis.
as §1
The hepatoprotective effect of the compound of the present invention was identified according to a known procedure(see, Landon, E. J. et al., Biochemical Pharmacology, 35, 4, 697-705, 1986), and the protocol may be described in brief as follows.
Mice(ICR, male, 27˜35 g) as the test animal were allowed in a condition of temperature 22±1° C. and relative humidity 60±5%. Feed and water were provided with no restriction while light and darkness were changed at an interval of 12 hours.
The compound of the present invention was suspended in a solvent corn oil, and this suspension was administered in a dose of 10 ml/kg. Each group included 8 test animals, and the test compound was orally administered once per animal. After 1 hour from the administration of the test compound, thioacetamide solution(concentration: 90 mg/ml) in physiological saline was intraperitoneally injected in a dose of 1 ml/kg. As the control compounds, silymarin and DDB were selected.
as §2, with “thioacetamide.” for “carbon tetrachloride.”

O/N=C/c1ccc2c(c1)OCO2 [Compound 1]
Inhibitory Effect against Liver Injuries (%) ALT ([1]; dose 1.9 mg/kg p.o. once): 50%
Inhibitory Effect against Liver Injuries (%) ALT ([1]; dose 5.6 mg/kg p.o. once): 79%
Inhibitory Effect against Liver Injuries (%) ALT ([1]; dose 16.7 mg/kg p.o. once): 100%
Inhibitory Effect against Liver Injuries (%) ALT ([1]; dose 50 mg/kg p.o. once): 100%
Inhibitory Effect against Liver Injuries (%) ALT ([2]; dose 50 mg/kg p.o. once): 99%

COc1cc(/C=N/OCc2ccccn2)cc2c1OCO2 [Compound 13, 6-(2-((2-pyridyl)methoxy)-2-azavinyl)-4-methoxybenzo [d]1,3-dioxolane]
Inhibitory Effect against Liver Injuries (%) ALT ([1]; dose 1.9 mg/kg p.o. once): 35%
Inhibitory Effect against Liver Injuries (%) ALT ([1]; dose 5.6 mg/kg p.o. once): 43%
Inhibitory Effect against Liver Injuries (%) ALT ([1]; dose 16.7 mg/kg p.o. once): 69%
Inhibitory Effect against Liver Injuries (%) ALT ([1]; dose 50 mg/kg p.o. once): 100%
Inhibitory Effect against Liver Injuries (%) ALT ([2]; dose 50 mg/kg p.o. once): 91%

c1csc(-c2ccc3c(c2)OCO3)n1 [Compound 21, 2-(benzo[3,4-d]1,3-dioxolan-5-yl)-1,3-thiazole]
Inhibitory Effect against Liver Injuries (%) ALT ([1]; dose 16.7 mg/kg p.o. once): 99%
Inhibitory Effect against Liver Injuries(%) AST ([1]; dose 16.7 mg/kg p.o. once): 97%
Inhibitory Effect against Liver Injuries (%) ALT ([1]; dose 50 mg/kg p.o. once): 100%
Inhibitory Effect against Liver Injuries(%) AST ([1]; dose 50 mg/kg p.o. once): 100%
Inhibitory Effect against Liver Injuries (%) ALT ([2]; dose 16.7 mg/kg p.o. once): 54%
Inhibitory Effect against Liver Injuries(%) AST ([2]; dose 16.7 mg/kg p.o. once): 37%
Inhibitory Effect against Liver Injuries (%) ALT ([2]; dose 50 mg/kg p.o. once): 98%
Inhibitory Effect against Liver Injuries(%) AST ([2]; dose 50 mg/kg p.o. once): 98%

CC(=O)SCC(=O)c1ccc2c(c1)OCO2 [Compound 28, 1-(benzo[3,4-d]1,3-dioxolan-5-yl)-2-acetylthioethan-1-one]
Inhibitory Effect against Liver Injuries (%) ALT ([1]; dose 16.7 mg/kg p.o. once): 93%
Inhibitory Effect against Liver Injuries(%) AST ([1]; dose 16.7 mg/kg p.o. once): 94%
Inhibitory Effect against Liver Injuries (%) ALT ([1]; dose 50 mg/kg p.o. once): 100%
Inhibitory Effect against Liver Injuries(%) AST ([1]; dose 50 mg/kg p.o. once): 100%
Inhibitory Effect against Liver Injuries (%) ALT ([2]; dose 16.7 mg/kg p.o. once): 76%
Inhibitory Effect against Liver Injuries(%) AST ([2]; dose 16.7 mg/kg p.o. once): 89%
Inhibitory Effect against Liver Injuries (%) ALT ([2]; dose 50 mg/kg p.o. once): 87%
Inhibitory Effect against Liver Injuries(%) AST ([2]; dose 50 mg/kg p.o. once): 94%

COC(=O)c1cc(OC)c2c(c1-c1c(C(=O)OC)cc(OC)c3c1OCO3)OCO2 [DDB, reference compound]
Inhibitory Effect against Liver Injuries (%) ALT ([1]; dose 50 mg/kg p.o. once): 22%
Inhibitory Effect against Liver Injuries(%) AST ([1]; dose 50 mg/kg p.o. once): 6%
Inhibitory Effect against Liver Injuries (%) ALT ([2]; dose 50 mg/kg p.o. once): 21%
Inhibitory Effect against Liver Injuries(%) AST ([2]; dose 50 mg/kg p.o. once): −4%
